{
  "source": "patent US5846823A",
  "about": "“Expression of human D4 dopamine receptors in stable cell lines” (Allelix Biopharmaceuticals, priority 1996, dated 1998)",
  "target": "T1, human D4 receptor (Homo sapiens, UniProt P21917, DEL265-296)",
  "T1 construct": "expressed in transfected cells",
  "T1 sequence (P21917 with tags, fused parts or gaps DEL265-296)": "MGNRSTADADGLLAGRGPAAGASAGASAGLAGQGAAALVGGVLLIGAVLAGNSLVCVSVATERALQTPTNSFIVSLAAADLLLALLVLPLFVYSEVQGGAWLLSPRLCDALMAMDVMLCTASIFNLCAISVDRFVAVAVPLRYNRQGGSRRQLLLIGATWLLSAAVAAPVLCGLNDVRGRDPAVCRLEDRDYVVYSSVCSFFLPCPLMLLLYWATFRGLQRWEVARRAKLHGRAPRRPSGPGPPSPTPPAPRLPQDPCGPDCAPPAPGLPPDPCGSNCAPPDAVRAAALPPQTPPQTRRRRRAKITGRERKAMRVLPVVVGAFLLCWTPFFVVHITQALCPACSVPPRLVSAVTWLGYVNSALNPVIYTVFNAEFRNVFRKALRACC",
  "assay": "[3H]Spiperone ligand binding assay (Scatchard analysis) on membranes of stable D4 cell line",
  "settings": "stably expressed human D4 receptor, Scatchard analysis (FIG. 4)",
  "experimental": "Cell membranes were prepared from 150 mM tissue culture dishes by suspending the cells in assay buffer [50 mM Tris-HCl, pH 7.4 containing 5 mM EDTA, 1.5 mM CaCl2, 5 mM MgCl2, 5 mM KCl, 120 NaCl]. The cells were homogenized using a Teflon pestle. Unbroken cells and nuclei were pelleted at 39,000×g for 15 minutes and the resulting pellet was resuspended in assay buffer at a concentration of 150-250 μg protein/ml.\nAssays were terminated by washing 3×4 ml with cold 50 mM Tris-HCl, pH 7.4, followed by rapid filtration through a cell harvester and filters were monitored for tritium using the L56000SC (Beckman) counter. Binding data was analyzed using the GRAFIT software package.",
  "data": [
    {"compound": "O=C(CCCN1CCC2(CC1)C(=O)NCN2c1ccccc1)c1ccc(F)cc1", "note": "[[^3 H]-labelled spiperone, spiperone]", "values": [
      {"measurement": "maximum spiperone-binding of the D4 receptor", "value": "4,344 fmol/mg protein"}
    ]}
  ]
}
